Reference: patent publication US9499493B2, “2,4-pyrimidinediamine compounds and their uses” (Rigel Pharmaceuticals, Inc., priority 2002, dated 2016)

What was measured:
[1] = tested on: cultured human mast cells (CHMC); assay: CHMC low cell density IgE activation: tryptase assay; format: cell-based; settings: anti-IgE
Summary of the method: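 Low-density CHMC assay: donor-adjusted 1000-1500 cells/well, MT buffer, 1 hr 37° C preincubation; anti-IgE stimulus 30 min 37° C versus MT-only controls; supernatant tryptase by substrate, 30 min RT.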

[2] = tested on: cultured human mast cells (CHMC); assay: CHMC low cell density ionomycin activation: tryptase assay; format: cell-based

| Compound | IC50 [1] | IC50 [2] | IC50 ([1]; Homo sapiens, Mast cell) | IC50 ([2]; Homo sapiens, Mast cell) |
| --- | --- | --- | --- | --- |
| CNC(=O)C(C)(C)Oc1cccc(Nc2ncc(F)c(Nc3ccc4c(c3)OCCO4)n2)c1 [R926915, N4-(3,4-Ethylenedioxyphenyl)-5-fluoro-N2-[3-[(N-methylamino)carbonyl-1,1-dimethylmethyleneoxy]phenyl]-2,4-pyrimidinediamine] | 1.71 µM | > 10 µM | – | – |
| COC(=O)c1cc(COc2cccc(Nc3ncc(F)c(Nc4ccc5c(c4)OCCO5)n3)c2)co1 [R935207, N4-(3,4-ethylenedioxyphenyl)-5-fluoro-N2-[3-(2-methoxycarbonyl-fur-4-yl)methyleneoxyphenyl]-2,4-pyrimidinediamine] | > 10 µM | > 10 µM | – | – |
| CCOC(=O)COc1cccc(Nc2nc(Nc3ccc4c(c3)OCCO4)ncc2F)c1 [R926774, N4-(3-Ethoxycarbonylmethyleneoxyphenyl)-N2-(3,4-ethylenedioxyphenyl)-5-fluoro-2,4-pyrimidinediamine] | 1.93 µM | 7.94 µM | – | – |
| CC(C)(C)OC(=O)N1CCc2ccc(Nc3nc(Cl)ncc3F)cc2C1 [Compound R926911] | > 10 µM | > 10 µM | – | – |
| CCOC(=O)CNC(=O)Oc1cccc(Nc2nc(Nc3cccc(OCC(=O)NC)c3)ncc2F)c1 [R926918, N4-[3-[[N-(Ethoxycarbonylmethyl)amino]carbonyloxy]phenyl]-5-fluoro-N2-[3-[(N-methylamino)carbonylmethyleneoxy]phenyl]-2,4-pyrimidinediamine] | 2.52 µM | > 10 µM | – | – |
| COC(=O)c1cc2cc(Nc3ncc(F)c(Nc4ccc5c(c4)C(=O)OC5)n3)ccc2o1 [R940294, N4-(3,3-Dihydroisobenzofuranyl-1-one-6-yl)-5-fluoro-N2-(2-methoxycarbonylbenzofur-5-yl)-2,4-pyrimidinediamine] | 1.37 µM | > 10 µM | – | – |
| CNC(=O)COc1cccc(Nc2nc(Nc3cc(OC)cc(OC)c3)ncc2F)c1 [R926810, N2-(3,5-Dimethoxyphenyl)-N4-[3-(N-methylamino)carbonylmethyleneoxyphenyl)-5-fluoro-2,4-pyrimidinediamine] | 1.22 µM | > 10 µM | – | – |
| COc1cc(-c2ccccc2)c(C)cc1Nc1ncc(C)c(Nc2cc(C)c(-c3ccccc3)cc2OC)n1 [R935003, N2,N4-Bis[(4-phenyl-2-methoxy-5-methyl)phenyl]-5-methyl-2,4-pyrimidinediamine] | > 10 µM | > 10 µM | – | – |
| CCOC(=O)COc1ccc(Nc2nc(Nc3ccc(OCC(=O)OCC)cc3)c(NC(=O)NC(=O)OCC)c(C(=O)OCC)n2)cc1 [R926586, N2,N4-Bis(4-ethoxycarbonylmethyleneoxyphenyl)-6-ethoxycarbonyl-5-(ethoxycarbonylaminocarbonylamino)-2,4-5-pyrimidinetriamine] | 2.75 µM | > 10 µM | – | – |
| CSc1nc(Nc2ccc3c(c2)OCCO3)nc(Nc2ccc3c(c2)OCCO3)c1Cl [R926475, N2,N4-Bis(3,4-ethyelenedioxyphenyl)-5-chloro-6-thiomethyl-2,4-pyrimidinediamine] | 2.15 µM | > 10 µM | – | – |
| Oc1cccc(Nc2nc(Nc3ccc(OCc4nnn[nH]4)cc3)ncc2C(F)(F)F)c1 [R920846] | – | – | > 10 µM | > 10 µM |
| CCOC(=O)COc1ccc(Nc2ncc(F)c(Nc3ccc4c(c3)OCCO4)n2)cn1 [R926740, N2-[2-(Ethoxycarbonylmethyleneoxy)pyridin-5-yl]-N4-(3,4-ethylenedioxyphenyl)-5-fluoro-2,4-pyrimidinediamine] | 4.42 µM | > 10 µM | – | – |
| CNC(=O)COc1cccc(Nc2ncc(F)c(Nc3cccc(-c4nnn[nH]4)c3)n2)c1 [R926855, 5-Fluoro-N2-[3-(N-methylamino)carbonylmethyleneoxyphenyl]-N4-[3-(tetrazol-5-yl)phenyl]-2,4-pyrimidinediamine] | > 10 µM | > 10 µM | – | – |
| CCOc1ccc(Nc2nc(Nc3cccc(OCC(=O)NC)c3)ncc2F)cc1 [R926827, N4-(4-Ethoxyphenyl)-5-fluoro-N2-[3-(N-methylamino)carbonylmethyleneoxyphenyl]-2,4-pyrimidinediamine] | 1.1 µM | > 10 µM | – | – |
| COC(=O)COc1cccc(Nc2ncc(F)c(Nc3cc(C)c(O)c(C)c3)n2)c1 [R945139, N4-(3,5-Dimethyl-4-hydroxyphenyl)-5-fluoro-N2-(3-methoxycarbonylmethyleneoxyphenyl)-2,4-pyrimidinediamine] | 1.02 µM | > 10 µM | – | – |

The next lines start with the values.

| IC50 [1] | IC50 [2] | IC50 ([1]; Homo sapiens, Mast cell) | IC50 ([2]; Homo sapiens, Mast cell) | Compound |
| --- | --- | --- | --- | --- |
| 0.566 µM | > 10 µM | – | – | CNC(=O)CCn1ncc2cc(Nc3ncc(F)c(Nc4ccc(Cl)nc4)n3)ccc21 [R935378, N4-(6-Chloro-3-pyridyl)-5-fluoro-N2-[1-[2(N-methylaminocarbonyl)ethyl]indazoline-5-yl]-2,4-pyrimidinediamine] |
| 0.63 µM | > 10 µM | – | – | Cc1noc(COc2ccc(Nc3nc(Nc4ccc(OC(C)C)cc4)ncc3F)cc2)n1 [R935144, 5-Fluoro-N2-(4-isopropoxyphenyl)-N4-[4-(3-methyl-1,2,4-oxadiazol-5-yl)methyleneoxyphenyl]-2,4-pyrimidinediamine] |
| 0.598 µM | > 10 µM | – | – | Cn1nnnc1COc1ccc(Nc2ncc(F)c(Nc3cccc(O)c3)n2)cc1 [R920861, 5-Fluoro-N4-(3-hydroxyphenyl)-N2-[4-(1-methyl-1,2,3,4-tetrazol-5-yl)methyleneoxyphenyl]-2,4-pyrimidineamine] |
| 0.091 µM | > 10 µM | – | – | COC(=O)c1cc2cc(Nc3ncc(F)c(Nc4ccc5c(c4)NC(=O)C(F)(F)O5)n3)ccc2o1 [R940353, N4-[(2,2-Difluoro-4H-benzo[1,4]oxazin-3-one)-6-yl]-5-fluoro-N2-(2-methoxycarbonylbenzofur-5-yl)-2,4-pyrimidinediamine] |
| 0.619 µM | 10 µM | – | – | CNC(=O)c1cc(COc2cccc(Nc3ncc(F)c(Nc4ccc5c(c4)OCCO5)n3)c2)co1 [R935213, N4-(3,4-ethylenedioxyphenyl)-5-fluoro-N2-[3-(2-(N-methylamino)carbonyl-fur-4-yl)methyleneoxyphenyl]-2,4-pyrimidinediamine] |
| 1.01 µM | > 10 µM | – | – | CCOC(=O)COc1cccc(Nc2ncc(F)c(Nc3cc(C)c(O)c(C)c3)n2)c1 [R940253, N4-(3,5-Dimethyl-4-hydroxyphenyl)-N2-(3-ethoxycarbonylmethyleneoxyphenyl)-5-fluoro-2,4-pyrimidinediamine] |
| 0.846 µM | > 10 µM | – | – | CC(C)Oc1ccc(Nc2ncc(F)c(Nc3ccc(OCc4nc(-c5ccccc5)no4)cc3)n2)cc1 [R935139, 5-Fluoro-N2-(4-isopropoxyphenyl)-N4-[4-(3-phenyl-1,2,4-oxadiazol-5-yl)methyleneoxyphenyl]-2,4-pyrimidinediamine] |
| 0.996 µM | > 10 µM | – | – | CN(C)CCOc1ccc(Nc2ncc(F)c(Nc3cccc(O)c3)n2)cc1 [R909236, N2-[4-(2-N,N-Dimethylamino)ethoxyphenyl]-5-fluoro-N4-(3-hydroxyphenyl)-2,4-pyrimidinediamine] |
| 0.573 µM | > 10 µM | – | – | Cc1noc(COc2ccc(Nc3ncc(F)c(Nc4ccc5c(c4)OCCO5)n3)cc2)n1 [R935143, N4-(3,4-Ethylenedioxyphenyl)-5-fluoro-N2-[4-(3-methyl-1,2,4-oxadiazol-5-yl)methyleneoxyphenyl]-2,4-pyrimidinediamine] |
| 0.764 µM | > 10 µM | – | – | Fc1cnc(Nc2cccc(C(F)(F)F)c2)nc1Nc1ccc2c(c1)OCCO2 [R926805] |
